Where “and” joins values, the source holds several entries; their conditions need not be identical. Equal entries are not always repeated.
Conditions: Crystal, Torsion effusion method

[F][Pb][F] [lead(II) fluoride]
Conditions | vapor or sublimation pressure
793 K | 0.000361 kPa
798 K | 0.000411 kPa
803 K | 0.000411 kPa
808 K | 0.000454 kPa
810 K | 0.000454 kPa
811 K | 0.000487 kPa
816 K | 0.000522 kPa
818 K | 0.000554 kPa
820 K | 0.000554 kPa
824 K | 0.000613 kPa
825 K | 0.000613 kPa
827 K | 0.000613 kPa
830 K | 0.000638 kPa
833 K | 0.000664 kPa
835 K | 0.000705 kPa
837 K | 0.000748 kPa
840 K | 0.000771 kPa
841 K | 0.000748 kPa
845 K | 0.000861 kPa and 0.000827 kPa
846 K | 0.000827 kPa
852 K | 0.000951 kPa
854 K | 0.00098 kPa
856 K | 0.00101 kPa
858 K | 0.00098 kPa
859 K | 0.00098 kPa
863 K | 0.001116 kPa
867 K | 0.001185 kPa and 0.001116 kPa
868 K | 0.001234 kPa
873 K | 0.001323 kPa and 0.001284 kPa
875 K | 0.001323 kPa
876 K | 0.001284 kPa
878 K | 0.001391 kPa
882 K | 0.001507 kPa
883 K | 0.001477 kPa
884 K | 0.001419 kPa
886 K | 0.001507 kPa
890 K | 0.001632 kPa
891 K | 0.001682 kPa
895 K | 0.001716 kPa
899 K | 0.00184 kPa
900 K | 0.001896 kPa
903 K | 0.001916 kPa
904 K | 0.001916 kPa
905 K | 0.001896 kPa
910 K | 0.002138 kPa and 0.002117 kPa
912 K | 0.002075 kPa
913 K | 0.002096 kPa
914 K | 0.002203 kPa
919 K | 0.002387 kPa
921 K | 0.002411 kPa
923 K | 0.002387 kPa
928 K | 0.002638 kPa
931 K | 0.002664 kPa
933 K | 0.002746 kPa
934 K | 0.002801 kPa
948 K | 0.003456 kPa
951 K | 0.003669 kPa

[F][Pb]([F])([F])[F] [lead(IV) fluoride]
Conditions | vapor or sublimation pressure [kPa]
603 K | 0.000566
612 K | 0.000677
622 K | 0.000844
628 K | 0.000844
631 K | 0.00097
634 K | 0.000942
635 K | 0.001062
638 K | 0.001116
639 K | 0.001116
644 K | 0.001259
645 K | 0.001139
647 K | 0.001209
648 K | 0.001336
653 K | 0.001297
654 K | 0.001492
657 K | 0.0016
658 K | 0.001448
663 K | 0.001584
664 K | 0.001751
666 K | 0.00184
668 K | 0.001751
669 K | 0.001896
670 K | 0.001974
673 K | 0.001878
675 K | 0.002096
676 K | 0.001974
682 K | 0.00234
684 K | 0.002203
